These are literature values, as cited in patent US9283189B2, “Sustained-release preparation of ivabradine or pharmaceutically acceptable salts thereof” (Jiangsu Hengrui Medicine Co., Ltd., priority 2011, dated 2016).

For `COc1cc2c(cc1OC)CC(=O)N(CCCN(C)CC1Cc3cc(OC)c(OC)cc31)CC2` (centres unmarked) [Ivabradine], the “Average plasma concentration at steady state” value (5 mg twice daily, CV=38%) was 10 ng/mL. The “Main half-life in plasma” value (70˜75% of the AUC) was 2 h. In addition, the Maximum plasma concentration (chronic administration, 5 mg twice daily, CV=29%) is 22 ng/mL. Besides, the “Volume of distribution at steady state” value (in patients) was around 100 L. In addition, under “in vivo”, the Effective half-life was 11 h, the Plasma protein bound result is on record as “approximately 70%”, the Renal clearance result is given as “approximately 70 ml/min” and the Total clearance entry is “about 400 ml/min”. Also, the “Oral dose excreted unmetabolized in urine” value (in vivo, po) is listed as “About 4%”. For the setting “oral administration, fasting condition”, the “Time to peak plasma level” value is “about 1 hour”. In addition, for the setting “oral dose range of 0.5 mg˜24 mg”, the “Kinetics (dose proportionality)” value is “linear”. Further, in the data set with chronic stable angina (5 mg and 7.5 mg twice daily, patients with chronic stable angina), the Angina attacks entry is reported as “significant decrease”. In addition, in the data set on chronic stable angina (human, in vivo), the “Influence on glucose or lipid metabolism” value is “no influence” and the “Rebound effect following the withdrawal of treatment” value is “no rebound effect”.
